Earlier results as cited in patent US7179486B1, “Process for preparing sustained release tablets” (Nostrum Pharmaceuticals, Inc., priority 1997, dated 2007).

O=C(O)c1cccnc1 [niacin, Niacin]
dosage release within a one hour period causing a flushing response in most subjects: more than 75 mg
